Biological target: β1AR (Homo sapiens, UniProt P08588)
Assay: BRET analysis of β-arrestin2 interaction with β1AR in HEK 293 cells
Format: cell-based
Conditions: 10 μM DFPQ, FIG. 2B
Experimental: FIGS. 2A-2C: […] Cells were read every 2 min post agonist addition. […]® ADRB2 cells (DiscoveRx) were maintained with the AssayCompleteTM Cell Culture kit (DiscoveRx catalog #92-[…]). […] HEK 293 cells stably overexpressing β2AR included 250 μg/ml G418. Cells were incubated at 37° C. in a humidified incubator with 5% CO2. […] Cells were read every three minutes for 18 minutes on a PolarStar Optima plate reader (BMG) to establish peak signal. […] Plates were incubated in the dark at room temperature for one hour. Luminescence was determined at room temperature (23-25° C.) on a PolarStar Optima plate reader (BMG). […] Screening data analysis and IC50 determination. […] Relative assay bias was calculated from the ratio of normalized cAMP and arrestin recruitment responses. […] BRET was measured using a Tecan Infinite F500 microplate reader. […] Bound [35 S]GTPγS was collected by rapid filtration on GF/B filters, washed 4 times with 4 ml of cold GTPγS wash buffer and analyzed by liquid scintillation counting. […] Immunoprecipitated proteins were separated by SDS-PAGE and analyzed by western blot using a β2AR C-terminal tail or phospho-specific antibody. […] Band intensity was measured by densitometry using ImageJ. […] Absorbance was then measured on a plate reader at 405 nm. […] Lungs were monitored for appropriate inflation. […] Images were analyzed post hoc using the ImageJ software. […] Cell-free area was quantitated using ImageJ. […]

Chain of β1AR (P08588 whole entry): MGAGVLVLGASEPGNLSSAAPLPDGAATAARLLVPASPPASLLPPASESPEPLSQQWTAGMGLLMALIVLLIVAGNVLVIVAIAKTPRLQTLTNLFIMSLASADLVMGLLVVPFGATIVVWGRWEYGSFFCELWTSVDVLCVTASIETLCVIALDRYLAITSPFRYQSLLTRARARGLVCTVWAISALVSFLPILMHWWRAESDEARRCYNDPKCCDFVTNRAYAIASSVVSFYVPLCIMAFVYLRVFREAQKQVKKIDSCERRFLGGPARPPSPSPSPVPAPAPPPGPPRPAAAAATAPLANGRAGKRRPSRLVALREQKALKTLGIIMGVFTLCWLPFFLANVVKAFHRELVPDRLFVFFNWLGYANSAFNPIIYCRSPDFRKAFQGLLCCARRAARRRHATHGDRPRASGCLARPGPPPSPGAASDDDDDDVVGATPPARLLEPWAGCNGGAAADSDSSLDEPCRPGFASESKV

β-arrestin2 interaction with the β1AR: not significantly inhibited
Structure (SMILES): Fc1ccc(Nc2nc(NC3CCCCC3)c3ccccc3n2)cc1F [DFPQ, N^4-cyclohexyl-N^2-(3,4-difluorophenyl)quinazoline-2,4-diamine]
